Counter-ions that a name gives are not always drawn. Bounds are passed on as bounds.

In general, melting point refers to the temperature of the solid-liquid transition.

`CC(C)n1nc(-c2ccc(OCCCN3CCCC(C)(C)C3)cc2)c2sccc2c1=O` (as salt: HCl) [Example 25, 7-{4-[3-(3,3-Dimethyl-piperidin-1-yl)-propoxy]-phenyl}-5-isopropyl-5H-thieno[2,3-d]pyridazin-4-one]: the melting point was 100 to 102 °C.
`Cc1cc(-c2ccc(OCCCN3CCCCC3)cc2)nn(Cc2ccccc2)c1=O` (as salt: HCl) [Example 44, 2-Benzyl-4-methyl-6-[4-(3-piperidin-1-yl-propoxy)-phenyl]-2H-pyridazin-3-one] yielded a melting point of 232 to 233 °C.
Take `Cn1nc(-c2ccc(OCC3CCN(C4CCCC4)CC3)cc2)ccc1=O` (as salt: HCl) [Example 70, 6-[4-(1-Cyclopentyl-piperidin-4-ylmethoxy)-phenyl]-2-methyl-2H-pyridazin-3-one]: the melting point was in the range of 250 to 251 °C.
`Cn1nc(-c2ccc(OCC3CCN(CC4CC4)CC3)cc2)ccc1=O` (as salt: HCl) [Example 69, 6-[4-(1-Cyclopropylmethyl-piperidin-4-ylmethoxy)-phenyl]-2-methyl-2H-pyridazin-3-one] returned a melting point of 230 to 231 °C.
As for `CC(C)N1CCC(COc2ccc(-c3ccc(=O)n(C)n3)cc2)CC1` (as salt: HCl) [Example 68, 6-[4-(1-Isopropyl-piperidin-4-ylmethoxy)-phenyl]-2-methyl-2H-pyridazin-3-one], the figure is 187 to 189 °C; as for `CCn1nc(-c2ccc(OCCCN3CCC[C@H]3C)cc2)ccc1=O` (as salt: tartrate) [Example 6, 2-Ethyl-6-{4-[3-((R)-2-methyl-pyrrolidin-1-yl)-propoxy]-phenyl}-2H-pyridazin-3-one], 58 to 62 °C; as for `C[C@@H]1CCCN1CCCOc1ccc(-c2nn(C)c(=O)c3c2CCCC3)cc1` (as salt: HCl) [Example 60, 2-Methyl-4-{4-[3-((R)-2-methyl-pyrrolidin-1-yl)-propoxy]-phenyl}-5,6,7,8-tetrahydro-2H-phthalazin-1-one], 156 to 158 °C.
As for `Cn1nc(-c2ccc(OCCCN3CCCCC3)cc2)c(-c2ccccc2)cc1=O` (as salt: HCl) [Example 48, 2-Methyl-5-phenyl-6-[4-(3-piperidin-1-yl-propoxy)-phenyl]-2H-pyridazin-3-one], the figure is 212 to 214 °C; as for `C[C@@H]1CCCN1CCCOc1ccc2cnn(C)c(=O)c2c1` (as salt: hydrochloride) [Example 79, 2-Methyl-7-[3-((R)-2-methyl-pyrrolidin-1-yl)-propoxy]-2H-phthalazin-1-one], 252 to 253 °C.
On to `C[C@@H]1CCCN1CCCOc1ccc(C2=NN(c3ccccn3)C(=O)CC2)cc1` (as salt: HCl) [Example 183, 6-{4-[3-((R)-2-Methyl-pyrrolidin-1-yl)-propoxy]-phenyl}-2-pyridin-2-yl-4,5-dihydro-2H-pyridazin-3-one], for which the melting point fell in the range of 203 to 205 °C.
With `CC1CC(=O)N(c2ccccn2)N=C1c1ccc(OC2CCN(C3CCC3)CC2)cc1` (stereo not shown) (as salt: HCl) [Example 193, 6-[4-(1-Cyclobutyl-piperidin-4-yloxy)-phenyl]-5-methyl-2-pyridin-2-yl-4,5-dihydro-2H-pyridazin-3-one] the figure was 143 to 145 °C; with `Cn1nc(-c2cccc(OCCCN3CCC[C@H]3CO)c2)c2c(c1=O)CCC2` (as salt: HCl) [Example 127, 4-{3-[3-((S)-2-Hydroxymethyl-pyrrolidin-1-yl)-propoxy]-phenyl}-2-methyl-2,5,6,7-tetrahydro-cyclopenta[d]pyridazin-1-one], 193 to 194 °C.
`O=c1ccc(-c2ccccc2)nn1-c1ccc(OC2CCN(C3CCC3)CC2)nc1` (as salt: fumarate) [Example 203, 2-[6-(1-Cyclobutyl-piperidin-4-yloxy)-pyridin-3-yl]-6-phenyl-2H-pyridazin-3-one] displayed a melting point of 155 to 159 °C.
As for `C[C@@H]1CCCN1CCCOc1ccc(C2=NNC(=O)C3CC23)cc1` (mixture of isomers) (as salt: HCl) [Example 243, 5-{4-[3-((R)-2-Methyl-pyrrolidin-1-yl)-propoxy]-phenyl}-3,4-diaza-bicyclo[4.1.0]hept-4-en-2-one], the figure is 136 to 139 °C.
As for `COC[C@@H]1CCCN1CCCOc1ccc(-c2nn(C(C)C)c(=O)c3ccsc23)cc1` (as salt: HCl) [Example 26, 5-Isopropyl-7-{4-[3-((S)-2-methoxymethyl-pyrrolidin-1-yl)propoxy]-phenyl}-5H-thieno[2,3-d]pyridazin-4-one], the figure is 83 °C (dec.); as for `O=c1cc(-c2ccc(OCCCN3CCCCC3)cc2)cnn1-c1ccccn1` (as salt: HCl) [Example 95, 5-[4-(3-Piperidin-1-yl-propoxy)-phenyl]-2-pyridin-2-yl-2H-pyridazin-3-one], 266 to 268 °C.
With `Cc1cccnc1-n1nc(C)c(-c2ccc(OCCCN3CCC[C@H]3C)cc2)cc1=O` (as salt: hydrochloride) [Example 101, 6-Methyl-2-(3-methyl-pyridin-2-yl)-5-{4-[3-((R)-2-methyl-pyrrolidin-1-yl)-propoxy]-phenyl}-2H-pyridazin-3-one] the figure was 106 °C (dec.); with `COCn1ncc(-c2ccc(OCCCN3CCC[C@H]3C)cc2C)cc1=O` (as salt: HCl) [Example 230, 2-Methoxymethyl-5-{2-methyl-4-[3-((R)-2-methyl-pyrrolidin-1-yl)-propoxyl]-phenyl}-2H-pyridazin-3-one], 139 to 140.5 °C; with `CN1N=C(c2ccc(OCCCN3CCCCC3)cc2)C2CCCC2C1=O` (stereo not shown) (as salt: HCl) [Example 59, 2-Methyl-4-[4-(3-piperidin-1-yl-propoxy)-phenyl]-2,4a,5,6,7,7a-hexahydro-cyclopenta[d]pyridazin-1-one], less than 50 °C.
Regarding `Cn1nc(-c2ccc(OCC3CCN(C4CCC4)CC3)cc2)ccc1=O` (as salt: HCl) [Example 67, 6-[4-(1-Cyclobutyl-piperidin-4-ylmethoxy)-phenyl]-2-methyl-2H-pyridazin-3-one], the melting point lay within 250 to 252 °C.
Compound `C[C@@H]1CCCN1CCCOc1ccc(-c2nn(Cc3ccc(Cl)cc3)c(=O)c3ccsc23)cc1` (as salt: HCl) [Example 38, 5-(4-Chloro-benzyl)-7-{4-[3-((R)-2-methyl-pyrrolidin-1-yl)-propoxy]-phenyl}-5H-thieno[2,3-d]pyridazin-4-one] showed a melting point of 223 to 224 °C.
As for `CC(C)n1nc(-c2ccc(OCCCN3CCC(N4CCCC4)CC3)cc2)c2sccc2c1=O` (as salt: HCl) [Example 30, 5-Isopropyl-7-{4-[3-(4-pyrrolidin-1-yl-piperidin-1-yl)-propoxy]-phenyl}-5H-thieno[2,3-d]pyridazin-4-one], the figure is 283 °C (dec.); as for `Cc1nn(C)c(=O)cc1-c1ccc(OCCCN2CCCCC2)cc1` (as salt: hydrochloride) [Example 87, 2,6-Dimethyl-5-[4-(3-piperidin-1-yl-propoxy)-phenyl]-2H-pyridazin-3-one], 210 to 211 °C.
With `C[C@@H]1CCCN1CCCOc1ccc(-c2ccc(=O)n(CCF)n2)cc1` (as salt: hydrochloride) [Example 118, 2-(2-Fluoro-ethyl)-6-{4-[3-((R)-2-methyl-pyrrolidin-1-yl)-propoxy]-phenyl}-2H-pyridazin-3-one] the figure was 135 to 136 °C.
As for `C[C@@H]1CCCN1CCCOc1ccc(-c2ccc(=O)[nH]n2)cc1F` (as salt: HCl) [Example 119, 6-{3-Fluoro-4-[3-((R)-2-methyl-pyrrolidin-1-yl)-propoxy]-phenyl}-2H-pyridazin-3-one], the figure is 252 to 253 °C; as for `Cn1ncc(-c2ccc(OCCCN3CCCCC3)cc2)cc1=O` (as salt: hydrochloride) [Example 92, 2-Methyl-5-[4-(3-piperidin-1-yl-propoxy)-phenyl]-2H-pyridazin-3-one], 253 to 254 °C.
Compound `Cc1ccc(=O)n(-c2ccc(OCCCN3CCC[C@H]3C)cc2)n1` (as salt: fumarate) [Example 201, 6-Methyl-2-{4-[3-((R)-2-methyl-pyrrolidin-1-yl)-propoxy]-phenyl}-2H-pyridazin-3-one] yielded a melting point of 168 to 170 °C.
As to `C[C@@H]1CCCN1CCCOc1ccc(-c2n[nH]c(=O)c3c2CCC3)cc1` (as salt: HCl) [Example 12, 4-{4-[3-((R)-2-Methyl-pyrrolidin-1-yl)-propoxy]-phenyl}-2,5,6,7-tetrahydro-cyclopenta[d]pyridazin-1-one], the melting point stood at 147 °C.
For the compound `CC(C)n1nc(-c2ccc(OCCCN3CCCC3)cc2)c2sccc2c1=O` (as salt: HCl) [Example 29, 5-Isopropyl-7-[4-(3-pyrrolidin-1-yl-propoxy)-phenyl]-5H-thieno[2,3-d]-pyridazin-4-one], the melting point was 144 °C.
As to `CC1CC(=O)NN=C1c1ccc(OCCCN2CCC[C@H]2C)cc1` (mixture of isomers) (as salt: HCl) [Example 194, 5-Methyl-6-{4-[3-((R)-2-methyl-pyrrolidin-1-yl)-propoxy]-phenyl}-4,5-dihydro-2H-pyridazin-3-one], the melting point lay within 169 to 171 °C.
Consider `CC(C)N1CCC(Oc2ccc(-c3ccc(=O)n(C)n3)cc2)CC1` (as salt: HCl) [Example 72], for which the melting point was 108 to 110 °C.
`Cc1n[nH]c(=O)cc1-c1ccc(OCCCN2CCCCCC2)cc1` (as salt: hydrochloride) [Example 90, 5-[4-(3-Azepan-1-yl-propoxy)-phenyl]-6-methyl-2H-pyridazin-3-one] displayed a melting point of 204 to 206 °C.
With `O=c1cc(-c2ccc(OC3CCN(C4CCC4)CC3)nc2)cn[nH]1` (as salt: hydrochloride) [Example 117, 5-[6-(1-Cyclobutyl-piperidin-4-yloxy)-pyridin-3-yl]-2H-pyridazin-3-one] the figure was 232 to 234 °C.
With `Cc1nn(-c2ccccn2)c(=O)cc1-c1ccc(OCCCN2CCC[C@H]2C)cc1` (as salt: hydrochloride) [Example 100, 6-Methyl-5-{4-[3-((R)-2-methyl-pyrrolidin-1-yl)-propoxy]-phenyl}-2-pyridin-2-yl-2H-pyridazin-3-one] the figure was 155 to 157 °C.

The record behind these values is patent publication US8586588B2, “Aryl pyridazinone derivatives and their use as H3 receptor ligands” (Cephalon, Inc., priority 2006, dated 2013).
